Patent US20240166660A1, “KRAS G12C INHIBITORS” (BeiGene Switzerland GmbH, priority 2021, published 2024)

Biological target: KRAS (aa 1-169) G12C, C51S, C80L, C118S (Homo sapiens (Human), UniProt P01116, C118S/C51S/C80L/G12C)
Assay: Biochemical functional assay: SOS1-mediated nucleotide exchange of GDP-loaded KRAS G12C, binding to GST-cRaf RBD, FRET readout
Details: 3 hrs pre-incubation with compound at 24° C., SOS1, GTPyS
Method in brief: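 GDP-loaded His-tagged KRAS construct preincubated with compound 3 h at 24° C in 25 mM HEPES pH7.5, 10 mM MgCl2, 0.01% Triton X-100; SOS1 (aa 564-1049), GTPγS and GST-cRaf RBD added for 3 h, then anti-His Tb cryptate/anti-GST XL665 for 3 h. HTRF 665/620 ratio; IC50 by four-parameter logistic fit.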

[1] = inhibition of nucleotide exchange

Chain of KRAS (aa 1-169) G12C, C51S, C80L, C118S (P01116 other isoform, or with tags, fused parts or gaps G12C/C51S/C80L/C118S): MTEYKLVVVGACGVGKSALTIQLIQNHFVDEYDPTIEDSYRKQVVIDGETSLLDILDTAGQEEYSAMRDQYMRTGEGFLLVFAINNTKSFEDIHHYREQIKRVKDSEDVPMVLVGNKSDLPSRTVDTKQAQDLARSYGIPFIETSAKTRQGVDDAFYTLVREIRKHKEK

Row | Compound | IC50 [1] [µM] | IC50 (bound in uM) [µM]
1 | C=C(F)C(=O)N1CCN(c2nc(N3CC(CC#N)(N(C)C)C3)nc3cc(-c4cccc5cccc(Cl)c45)c4c(c23)OCCC4)C[C@@H]1CC#N [Compound B90, (S)-2-(1-(5-(8-chloronaphthalen-1-yl)-10-(3-(cyanomethyl)-4-(2-fluoroacryloyl)piperazin-1-yl)-3,4-dihydro-2H-pyrano[2,3-f]quinazolin-8-yl)-3-(dimethylamino)azetidin-3-yl)acetonitrile] | 0.037 | –
2 | C=CC(=O)N1CCN(c2ncnc3cc(-c4c(Cl)ccc5[nH]ncc45)c4c(c23)OCCC4)C[C@@H]1CC#N (single isomer, unassigned) [Compound A14] | 0.0794 | –
3 | C=C(F)C(=O)N1CCN(c2nc(OC[C@@H]3CCCN3C)nc3cc(-c4c(Cl)c(C)cc5[nH]ncc45)c4ccoc4c23)C[C@@H]1CC#N [Compound B35, 2-((2S)-4-(4-(5-chloro-6-methyl-1H-indazol-4-yl)-7-(((S)-1-methylpyrrolidin-2-yl)methoxy)furo[2,3-f]quinazolin-9-yl)-1-(2-fluoroacryloyl)piperazin-2-yl)acetonitrile] | 0.0084 | –
4 | C=CC(=O)N1CCN(c2nc(OC[C@@H]3C[C@@H](F)CN3C)nc3cc(-c4c(Cl)c(C)cc5[nH]ncc45)c4c(c23)OCCC4)CC1 [Compound B15, 1-(4-(5-(5-chloro-6-methyl-1H-indazol-4-yl)-8-(((2S,4R)-4-fluoro-1-methylpyrrolidin-2-yl)methoxy)-3,4-dihydro-2H-pyrano[2,3-f]quinazolin-10-yl)piperazin-1-yl)prop-2-en-1-one] | 0.107 | –
5 | C=CC(=O)N1CCN(c2ncnc3cc(-c4cc(C)cc5[nH]ncc45)c4c(c23)OCCC4)C[C@@H]1CC#N [Compound A11, (S)-2-(1-acryloyl-4-(5-(6-methyl-1H-indazol-4-yl)-3,4-dihydro-2H-pyrano[2,3-f]quinazolin-10-yl)piperazin-2-yl)acetonitrile] | 0.799 | –
6 | C=C(F)C(=O)N1CCN(c2nc(OC[C@@H]3CCCN3C)nc3cc(-c4c(Cl)c(C)cc5[nH]ncc45)c4c(c23)OCCC4)C[C@@H]1CC#N (single isomer, unassigned; atropisomer 2) [Compound B13] | 0.325 | –
7 | C=CC(=O)N1CCN(c2nc(OC3CCCC3N(C)C)nc3cc(-c4cccc5cccc(Cl)c45)c4c(c23)OCCC4)C[C@@H]1CC#N (stereo partly drawn) [Compound B48, 2-((2S)-1-acryloyl-4-(5-(8-chloronaphthalen-1-yl)-8-((2-(dimethylamino)cyclopentyl)oxy)-3,4-dihydro-2H-pyrano[2,3-f]quinazolin-10-yl)piperazin-2-yl)acetonitrile] | 0.014 | –
8 | C=C(F)C(=O)N1CCN(c2nc(OC[C@@H]3CCCN3C)nc3cc(-c4ccccc4C4CC4)c4c(c23)OCCC4)C[C@@H]1CC#N [Compound B32, 2-((S)-4-(5-(2-cyclopropylphenyl)-8-(((S)-1-methylpyrrolidin-2-yl)methoxy)-3,4-dihydro-2H-pyrano[2,3-f]quinazolin-10-yl)-1-(2-fluoroacryloyl)piperazin-2-yl)acetonitrile] | 0.226 | –
9 | C=CC(=O)N1CCN(c2nc(OC[C@@H]3CCCN3C)nc3cc(-c4c(Cl)c(C)cc5[nH]ncc45)c4c(c23)OCCC4)C[C@@H]1CC#N [Compound B1, 2-((2S)-1-acryloyl-4-(5-(5-chloro-6-methyl-1H-indazol-4-yl)-8-(((S)-1-methylpyrrolidin-2-yl)methoxy)-3,4-dihydro-2H-pyrano[2,3-f]quinazolin-10-yl)piperazin-2-yl)acetonitrile] | 0.003 | –
10 | C=CC(=O)N1CCN(c2ncnc3cc(-c4cccc5ccccc45)c4c(c23)OC(C)(C)CC4)CC1 [Compound A1, 1-(4-(2,2-dimethyl-5-(naphthalen-1-yl)-3,4-dihydro-2H-pyrano[2,3-f]quinazolin-10-yl)piperazin-1-yl)prop-2-en-1-one] | 5.5 | –
11 | C=C(F)C(=O)N1CCN(c2nc(N3CC(N(C)C)C3)nc3cc(-c4cccc5cccc(Cl)c45)c4c(c23)OCCC4)C[C@@H]1CC#N (single isomer, unassigned) [Compound B102] | 0.354 | –
12 | C=C(F)C(=O)N1CCN(c2nc(OC[C@@H]3CCCN3C)nc3cc(-c4cccc5cccc(Cl)c45)c4c(c23)OCCC4)C[C@@H]1CC#N [Compound B66, 2-((S)-4-(5-(8-chloronaphthalen-1-yl)-8-(((S)-1-methylpyrrolidin-2-yl)methoxy)-3,4-dihydro-2H-pyrano[2,3-f]quinazolin-10-yl)-1-(2-fluoroacryloyl)piperazin-2-yl)acetonitrile] | 0.0093 | –
13 | C=C(F)C(=O)N1CCN(c2nc(OCC3C[C@@H](OC)CN3C)nc3cc(-c4cccc5cccc(Cl)c45)c4c(c23)OCCC4)C[C@@H]1CC#N (single isomer, unassigned) [Compound B95] | 0.0115 | –
14 | C=C(F)C(=O)N1CCN(c2nc(N3CC(N(C)C)C3)nc3cc(-c4c(Cl)c(C)cc5[nH]ncc45)c4ccoc4c23)C[C@@H]1CC#N [Compound B79, 2-((2S)-4-(4-(5-chloro-6-methyl-1H-indazol-4-yl)-7-(3-(dimethylamino)azetidin-1-yl)furo[2,3-f]quinazolin-9-yl)-1-(2-fluoroacryloyl)piperazin-2-yl)acetonitrile] | 0.059 | –
15 | C=CC(=O)N1CCN(c2nc(N3CC(N(C)C)C3)nc3cc(-c4c(O)cccc4F)c4c(c23)OCCC4)CC1 [Compound B7, 1-(4-(8-(3-(dimethylamino)azetidin-1-yl)-5-(2-fluoro-6-hydroxyphenyl)-3,4-dihydro-2H-pyrano[2,3-f]quinazolin-10-yl)piperazin-1-yl)prop-2-en-1-one] | 1.09 | –
16 | C=CC(=O)N1CCN(c2nc(N3CCC(N(C)C)C3)nc3cc(-c4c(Cl)c(C)cc5[nH]ncc45)c4c(c23)OCCC4)CC1 (centres unmarked) [Compound B25, 1-(4-(5-(5-chloro-6-methyl-1H-indazol-4-yl)-8-(3-(dimethylamino)pyrrolidin-1-yl)-3,4-dihydro-2H-pyrano[2,3-f]quinazolin-10-yl)piperazin-1-yl)prop-2-en-1-one] | 0.138 | –
17 | C=C(F)C(=O)N1CCN(c2nc(OC[C@@H]3CCCN3C)nc3cc(-c4cccc5ccc(Cl)cc45)c4c(c23)OCCC4)C[C@@H]1CC#N [Compound B70, 2-((S)-4-(5-(7-chloronaphthalen-1-yl)-8-(((S)-1-methylpyrrolidin-2-yl)methoxy)-3,4-dihydro-2H-pyrano[2,3-f]quinazolin-10-yl)-1-(2-fluoroacryloyl)piperazin-2-yl)acetonitrile] | 0.035 | –
18 | C=CC(=O)N1CCN(c2nc(N3CC(CN(C)C)C3)nc3cc(-c4cccc5cccc(Cl)c45)c4c(c23)OCCC4)CC1 [Compound B26, 1-(4-(5-(8-chloronaphthalen-1-yl)-8-(3-((dimethylamino)methyl)azetidin-1-yl)-3,4-dihydro-2H-pyrano[2,3-f]quinazolin-10-yl)piperazin-1-yl)prop-2-en-1-one] | 0.239 | –
19 | C=CC(=O)N1C[C@H](C)N(c2nc(OC[C@@H]3CCCN3C)nc3cc(-c4c(Cl)c(C)cc5[nH]ncc45)c4ccoc4c23)C[C@H]1C [Compound B62, 1-((2R,5S)-4-(4-(5-chloro-6-methyl-1H-indazol-4-yl)-7-(((S)-1-methylpyrrolidin-2-yl)methoxy)furo[2,3-f]quinazolin-9-yl)-2,5-dimethylpiperazin-1-yl)prop-2-en-1-one] | 0.642 | –
20 | C=CC(=O)N1CCN(c2nc(N3CC(N(C)C)C3)nc3cc(-c4c(F)cccc4F)c4c(c23)OCCC4)CC1 [Compound B2, 1-(4-(5-(2,6-difluorophenyl)-8-(3-(dimethylamino)azetidin-1-yl)-3,4-dihydro-2H-pyrano[2,3-f]quinazolin-10-yl)piperazin-1-yl)prop-2-en-1-one] | 2.24 | –
21 | C=C(F)C(=O)N1CCN(c2nc(OC[C@@H]3CCCN3C)nc3cc(-c4c(F)cccc4F)c4ccoc4c23)C[C@@H]1CC#N [Compound B38, 2-((S)-4-(4-(2,6-difluorophenyl)-7-(((S)-1-methylpyrrolidin-2-yl)methoxy)furo[2,3-f]quinazolin-9-yl)-1-(2-fluoroacryloyl)piperazin-2-yl)acetonitrile] | 0.913 | –
22 | C=C(F)C(=O)N1CCN(c2nc(OCC3C[C@@H](OC)CN3C)nc3cc(-c4cccc5cccc(Cl)c45)c4c(c23)OCCC4)C[C@@H]1CC#N (single isomer, unassigned) [Compound B97] | 0.508 | –
23 | C=C(F)C(=O)N1CCN(c2nc(OC3CCCN(C)C3)nc3cc(-c4cccc5cccc(Cl)c45)c4c(c23)OCCC4)C[C@@H]1CC#N (stereo partly drawn) [Compound B84, 2-((2S)-4-(5-(8-chloronaphthalen-1-yl)-8-((1-methylpiperidin-3-yl)oxy)-3,4-dihydro-2H-pyrano[2,3-f]quinazolin-10-yl)-1-(2-fluoroacryloyl)piperazin-2-yl)acetonitrile] | 0.483 | –
24 | C=CC(=O)N1CCN(c2nc(N(C)CCN(C)C)nc3cc(-c4cccc5cccc(Cl)c45)c4c(c23)OCCC4)CC1 [Compound B23, 1-(4-(5-(8-chloronaphthalen-1-yl)-8-((2-(dimethylamino)ethyl)(methyl)amino)-3,4-dihydro-2H-pyrano[2,3-f]quinazolin-10-yl)piperazin-1-yl)prop-2-en-1-one] | 0.202 | –
25 | C=CC(=O)N1CCN(c2nc(N3CC(N(C)C)C3)nc3cc(-c4ccccc4Cl)c4c(c23)OCCC4)CC1 [Compound B21, 1-(4-(5-(2-chlorophenyl)-8-(3-(dimethylamino)azetidin-1-yl)-3,4-dihydro-2H-pyrano[2,3-f]quinazolin-10-yl)piperazin-1-yl)prop-2-en-1-one] | – | > 10
26 | C=CC(=O)N1CC2(CCN(c3ncnc4cc(-c5c(O)cccc5F)c5c(c34)OCCC5)CC2)C1 [Compound A5, 1-(7-(5-(2-fluoro-6-hydroxyphenyl)-3,4-dihydro-2H-pyrano[2,3-f]quinazolin-10-yl)-2,7-diazaspiro[3.5]nonan-2-yl)prop-2-en-1-one] | 1.69 | –
